In brackets after ≈: the same amount, converted by molar mass. Activity calls are given as the source filed them. The rule behind the calls is not given here.
Experiments:
Hepatitis C virus [1] = assay: Antiviral activity against Hepatitis C virus infected in Ava5 cell assessed as suppression of HCV replication at 0.6 ug/ml; format: functional, organism-based; conditions: Hepacivirus hominis
Hepatitis C virus [2] = assay: Antiviral activity against Hepatitis C virus infected in HEK293 cell expressing sip-L protein assessed viral RNA level; format: functional, organism-based, Hepacivirus hominis
Hepatitis C virus [3] = assay: Antiviral activity against Hepatitis C virus infected in Ava5 cell assessed as suppression of HCV replication at 6 ug/ml; format: functional, organism-based; conditions: Hepacivirus hominis
Hepatitis C virus [4] = assay: Antiviral activity against Hepatitis C virus infected in Ava5 cell assessed as suppression of HCV replication at 0.06 ug/ml; format: functional, organism-based; conditions: Hepacivirus hominis
Hepatitis C virus [5] = assay: Antiviral activity against Hepatitis C virus infected in HEK293 cell expressing sip-L protein; format: functional, organism-based, Hepacivirus hominis

- EC50 (Hepatitis C virus [2]): 0.8 µg/mL (≈ 2.66 µM)
- IC50 (Hepatitis C virus [5]): 350 µg/mL (≈ 1170 µM)
SMILES: C[C@@]1(F)[C@H](O)[C@@H](CO)O[C@H]1n1cc(F)c2c(N)ncnc21
- Activity (Hepatitis C virus [1]): Active
- Activity (Hepatitis C virus [3]): Active
- Activity (Hepatitis C virus [4]): inactive

From ChEMBL document CHEMBL1287808, “Synthesis and anti-HCV activity of a new 2'-deoxy-2'-fluoro-2'-C-methyl nucleoside analogue” (Bioorg Med Chem Lett, 2010)
